Results taken from patent US6831075B2, “Heterocyclic substituted pyrazolones” (Cephalon, Inc., priority 1999, dated 2004).

Target: T1, recombinant human baculoviral VEGFR2 cyctoplasmic domain (Homo sapiens, UniProt P35968)
T1 construct: recombinant human baculoviral VEGFR2 cyctoplasmic domain; host or cells: baculovirus expression system
Experiment: VEGFR2 kinase inhibition assay (ELISA-based, time-resolved fluorescence)
Format: biochemical
Conditions: 1 uM compound; 30 μM ATP; read-out: VEGFR-2 kinase % inhibition @ 1 uM
Protocol: Inhibition of Vascular Endothelial Growth Factor Receptor-2 Kinase Activity
Assay were performed as described for trkA kinase below. The 96-well microtiter plate (FluoroNUNC Maxisorp) was coated with 40 μg/ml recombinant human phospholipase C-γ1/glutathione S-transferase fusion protein. Inhibition studies were performed in 100 μl assay mixtures containing 50 mM HEPES, pH 7.4, 30 μM ATP, 10 mM MnCl2, 0.1% BSA, 2% DMSO, and 1 μM of test compound. The reaction was initiated by adding prephosphorylated recombinant human baculoviral VEGFR2 cyctoplasmic domain. The reaction was allowed to proceed for 15 minutes at 37° C. The detection antibody, eurpium-labeled anti-phosphotyrosine antibody (Wallac #CR04-100), was added at 1:5000 dilution in block buffer (3% BSA in TBST).

T1 sequence (P35968 786-1356 limits assumed): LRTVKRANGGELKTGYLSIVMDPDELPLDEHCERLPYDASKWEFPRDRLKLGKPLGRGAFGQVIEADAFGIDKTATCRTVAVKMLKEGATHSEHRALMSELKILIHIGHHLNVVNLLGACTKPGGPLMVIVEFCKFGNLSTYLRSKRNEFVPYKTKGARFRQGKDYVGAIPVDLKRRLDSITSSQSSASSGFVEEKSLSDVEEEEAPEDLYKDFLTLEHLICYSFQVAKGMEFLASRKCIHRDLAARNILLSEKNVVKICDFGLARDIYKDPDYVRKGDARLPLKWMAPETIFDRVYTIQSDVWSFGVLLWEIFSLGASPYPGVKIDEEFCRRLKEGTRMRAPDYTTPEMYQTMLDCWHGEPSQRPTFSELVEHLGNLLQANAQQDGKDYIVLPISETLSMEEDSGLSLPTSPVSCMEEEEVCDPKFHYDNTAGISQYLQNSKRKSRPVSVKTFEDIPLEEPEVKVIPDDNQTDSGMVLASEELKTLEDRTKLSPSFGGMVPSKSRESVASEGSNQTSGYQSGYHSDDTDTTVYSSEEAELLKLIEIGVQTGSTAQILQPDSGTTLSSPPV

Compound	inhibition at 1 µM [%]
Cc1cc(C)c(C=C2C(=O)NN=C2c2c[nH]c3ccccc23)[nH]1 [Compound 76, 4-[(3,5-dimethylpyrrol-2-yl)methylene]-3-indol-3-yl-2-pyrazolin-5-one]	39
Cc1cc(C)c(CC2C(=O)NN=C2c2c[nH]c3ccccc23)[nH]1 (centres unmarked) [Compound 77, 4-[(3,5-dimethylpyrrol-2-yl)methyl]-3-indol-3-yl-2-pyrazolin-5-one]	21
